Results from US7772428B2, “Creatine hydroxycitric acids salts and methods for their production and use in individuals” (Northern Innovations and Formulations, priority 2005, dated 2010).
Read-outs that look alike come from different tables or passages of the source.

Tests used:
[1] = in vivo
[2] = Stability (in water and acidic solutions); conditions: stated in words, Example 1
Bioavailability = conditions: stated in words, Example 1
ATP citrate lyase = target: T1, ATP citrate lyase (Homo sapiens, UniProt P53396); conditions: cited from earlier work
T1 sequence (P53396 1-1101): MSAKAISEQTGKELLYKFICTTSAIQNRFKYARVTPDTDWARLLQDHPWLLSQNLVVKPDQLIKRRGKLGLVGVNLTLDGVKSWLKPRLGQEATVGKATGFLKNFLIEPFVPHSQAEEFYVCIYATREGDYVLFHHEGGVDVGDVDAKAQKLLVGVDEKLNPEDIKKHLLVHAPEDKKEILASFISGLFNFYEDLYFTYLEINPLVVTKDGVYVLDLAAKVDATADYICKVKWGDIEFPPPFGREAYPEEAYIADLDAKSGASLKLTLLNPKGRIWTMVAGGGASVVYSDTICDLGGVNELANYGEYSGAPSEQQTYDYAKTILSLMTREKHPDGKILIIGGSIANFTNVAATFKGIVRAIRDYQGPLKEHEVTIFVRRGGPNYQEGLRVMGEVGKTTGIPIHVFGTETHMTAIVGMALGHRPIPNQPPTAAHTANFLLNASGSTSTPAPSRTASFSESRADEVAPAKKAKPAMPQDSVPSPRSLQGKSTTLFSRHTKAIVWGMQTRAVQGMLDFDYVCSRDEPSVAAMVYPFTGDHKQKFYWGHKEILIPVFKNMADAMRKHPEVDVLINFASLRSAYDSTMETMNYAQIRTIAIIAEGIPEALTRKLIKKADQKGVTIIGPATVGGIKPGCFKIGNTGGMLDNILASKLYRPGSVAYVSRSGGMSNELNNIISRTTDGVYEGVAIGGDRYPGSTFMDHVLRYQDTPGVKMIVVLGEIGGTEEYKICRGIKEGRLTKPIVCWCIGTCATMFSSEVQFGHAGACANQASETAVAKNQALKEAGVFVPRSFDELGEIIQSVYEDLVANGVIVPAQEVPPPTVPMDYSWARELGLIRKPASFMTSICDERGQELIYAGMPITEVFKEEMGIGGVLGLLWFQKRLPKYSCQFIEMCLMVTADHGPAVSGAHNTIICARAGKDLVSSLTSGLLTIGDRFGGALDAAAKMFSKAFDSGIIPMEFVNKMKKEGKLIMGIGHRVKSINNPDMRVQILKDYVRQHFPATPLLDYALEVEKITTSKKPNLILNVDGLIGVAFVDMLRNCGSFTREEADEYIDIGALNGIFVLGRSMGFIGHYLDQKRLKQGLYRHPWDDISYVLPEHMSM

[3] = daily doses of about 20 g of creatine for 5-7 days; cited from earlier work

Compound	stability [2]	bioavailability (Bioavailability)	also measured
CN(CC(=O)O)C(=N)N.O.O=C([O-])CC(O)(C(=O)[O-])C(O)C(=O)O.[K+].[K+] (stereo not shown) [(Mono)-creatine dipotassium hydroxycitrate monohydrate]			bioavailability [1]: bioavailable
CN(CC(=O)O)C(=N)N.CN(CC(=O)O)C(=N)N.O.O=C(O)CC(O)(C(=O)O)C(O)C(=O)[O-].[K+] (stereo not shown) [Dicreatine (mono) potassium hydroxycitrate monohydrate]	stable	bioavailable	
O=C(O)CC(O)(C(=O)O)C(O)C(=O)O (stereo not shown) [Hydroxycitric acid]			activity of ATP citrate lyase (ATP citrate lyase): inhibit
CN(CC(=O)O)C(=N)N [creatine]			increase of total creatine content in the muscle [3]: 10-25%
Tricreatine hydroxycitrate monohydrate	stable	bioavailable	
